This assay has as its system mouse melanoma cell line (B16F1). Description: Cytotoxicity tests with a mouse melanoma cell line (B16F1). It is filed as cell-based. The following applies: B16F1 mouse melanoma cells, concentration of 100 μM.

In the case of Cyanocobalamin [vitamin B12], the proliferation inhibition result is reported as “no effect at all”.
